# Measured values: US20140155330A1, “Compositions And Methods For Modulating Apoptosis” (Yeda Research and Development Co. Ltd., priority 2011, published 2014)
# Key:
# Atg12-Mcl-1 interaction = Atg12-Mcl-1 interaction (Homo sapiens, UniProt Q07820); assay: Co-immunoprecipitation of Flag-Atg12 with Mcl-1, competition by Bcl-2 inhibitor; type: binding; conditions: Atg12 immunoprecipitates from HEK293 cells incubated with 10 μM ABT-737 (FIG. 5G)
# Atg12-Bcl-2 interaction [1] = target: Atg12-Bcl-2 interaction (Homo sapiens, UniProt P10415); assay: Co-immunoprecipitation of Flag-Atg12 with endogenous Bcl-2, competition by Bcl-2 inhibitor; type: binding; conditions: Atg12 immunoprecipitates from HEK293 cells incubated with 10 μM ABT-737 vs DMSO; western blot (FIG. 5G)
# Chain of Atg12-Bcl-2 interaction (Homo sapiens, UniProt P10415) (P10415 whole entry, the tested form may be a part): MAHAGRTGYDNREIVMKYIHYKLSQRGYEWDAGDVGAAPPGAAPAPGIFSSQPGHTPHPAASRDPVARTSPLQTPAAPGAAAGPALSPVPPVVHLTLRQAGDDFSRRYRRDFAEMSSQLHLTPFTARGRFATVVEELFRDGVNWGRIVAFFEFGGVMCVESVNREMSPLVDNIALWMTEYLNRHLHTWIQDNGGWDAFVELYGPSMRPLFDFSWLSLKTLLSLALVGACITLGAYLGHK
# From the text: (A) Sequence alignment of the BH3-like region of Atg12 with BH3 domains of the Bcl-2 family using ClustalW. […] Species abbreviations: Hs, Homo sapiens; Sc, Saccharomyces cerevisiae; Dm, Drosophila melanogaster. (B) Co-immunoprecipitation of Flag-tagged hAtg12 and Bcl-2 or Mcl-1 from HEK293 cells co-transfected as indicated. (C) Co-immunoprecipitation of Flag-tagged hAtg12 with endogenous Bcl-2 and Mcl-1 from HEK293 cells. (D) Co-immunoprecipitation of endogenous Atg12 and endogenous Mcl-1 in HEK293 and HeLa cells. (E) Co-immunoprecipitation of Flag-tagged Atg12 and endogenous Bcl-2 in HeLa cells treated with STS (3 μM; 4 h). (F) Co-immunoprecipitation of Flag-tagged Atg12 and endogenous Bcl-2 in HEK293 cells co-expressing a control plasmid (CAT) or HA-tagged BAD. (G) Flag-Atg12 was immunoprecipitated from HEK293 cells and incubated with either 10 μM ABT-737 or DMSO (vehicle control). Co-precipitating Bcl-2 was assessed by western blot after elution with excess Flag peptide. (H) Co-immunoprecipitation of wild-type Atg12 or Atg12/D64 mutants with Bcl-2 in HEK293 cells co-transfected as indicated.
# [2] = system: Flag-tagged human Atg12 (wild type)
# Atg12-Bcl-2 interaction [3] = assay: Co-immunoprecipitation of Flag-tagged Atg12 and endogenous Bcl-2 in STS-treated HeLa cells; type: cell-based, human; conditions: STS 3 μM, 4 h (FIG. 5E)
# From the text: (A) Sequence alignment of the BH3-like region of Atg12 with BH3 domains of the Bcl-2 family using ClustalW. The four conserved BH3 hydrophobic residues are colored in grey, and the conserved “GD” residues in black. Arrow indicates critical Asp64 residue in hAtg12. Species abbreviations: Hs, Homo sapiens; Sc, Saccharomyces cerevisiae; Dm, Drosophila melanogaster. (B) Co-immunoprecipitation of Flag-tagged hAtg12 and Bcl-2 or Mcl-1 from HEK293 cells co-transfected as indicated. (C) Co-immunoprecipitation of Flag-tagged hAtg12 with endogenous Bcl-2 and Mcl-1 from HEK293 cells. (D) Co-immunoprecipitation of endogenous Atg12 and endogenous Mcl-1 in HEK293 and HeLa cells. (E) Co-immunoprecipitation of Flag-tagged Atg12 and endogenous Bcl-2 in HeLa cells treated with STS (3 μM; 4 h). (F) Co-immunoprecipitation of Flag-tagged Atg12 and endogenous Bcl-2 in HEK293 cells co-expressing a control plasmid (CAT) or HA-tagged BAD. (G) Flag-Atg12 was immunoprecipitated from HEK293 cells and incubated with either 10 μM ABT-737 or DMSO (vehicle control). Co-precipitating Bcl-2 was assessed by western blot after elution with excess Flag peptide. (H) Co-immunoprecipitation of wild-type Atg12 or Atg12/D64 mutants with Bcl-2 in HEK293 cells co-transfected as indicated. In B, C, F-H, DAP1-Flag was used instead of Flag-Atg12 as a negative control for co-immunoprecipitation. […]
# Bax = assay: Immunoprecipitation of conformationally active Bax (6A7 antibody) from HeLa cells; type: cell-based, human; conditions: HeLa cells treated with STS; conformation-specific antibody 6A7 (FIG. 11C)
# Procedure: Conformationally active Bax was immunoprecipitated with anti-Bax antibody (6A7, Abcam). Cell pellets from STS-treated HeLa cells (3 μM, 4 h; Sigma Aldrich) were resuspended in 1% CHAPS (3-[(3-cholamidopropyl)-dimethylammonio]-1-propanesulfonate) buffer supplemented with protease and phosphatase inhibitors. Pre-cleared cell lysates were incubated with 2 μg antibody overnight at 4° C., followed by incubation with protein G agarose beads. Beads were washed with lysis buffer and boiled in sample buffer. Western blot detection of total Bax was performed with anti-Bax N20 antibody (Santa Cruz Biotechnology).
# Next, it was assessed whether the depletion of Atg12 affected early events in the apoptotic cascade that are regulated by anti-apoptotic Bcl-2 proteins. […] Importantly, Bax activation was restored upon enforced expression of an siRNA-resistant construct of Atg12 (FIG. 11D).
# Flag-tagged Bcl-2 = target: T1, Flag-tagged Bcl-2 (UniProt P10415 1-239); assay: immunoprecipitation of Flag-tagged Bcl-2, western blot for endogenous Atg12
# T1 construct: Expressed in HEK293 cells and immunoprecipitated on anti-FLAG beads; also called Flag-Bcl-2; not shown: Flag tag
# T1 sequence (P10415 whole entry): as the sequence (P10415 whole entry, the tested form may be a part) above
# Procedure: (§1) For co-immunoprecipitation, HEK293 cells were transiently transfected with the indicated plasmids. Cell pellets were lysed in B buffer (0.4% NP-40, 0.5 mM EDTA, 100 mM KCl, 20 mM Hepes pH 7.6, 20% glycerol) supplemented with protease and phosphatase inhibitors. […] In Example 7, an irrelevant tagged protein (DAP1-Flag) was used as control.
# The conjugation of Atg12 to Atg5 is an essential step in the process of autophagy. In order to establish whether Bcl-2 binds to free Atg12, or to the Atg5-Atg12 conjugate, the nature of endogenous Atg12 that is co-immunoprecipitated with Bcl-2 was examined more closely. Upon immunoprecipitation of Flag-tagged Bcl-2 from HEK293 cells, a single band corresponding to the size of unconjugated Atg12 was observed, with no traces at the expected conjugate size (FIG. 7A, left). Furthermore, neither of Atg12's reported conjugation partners, Atg5 or Atg3, could be detected on this blot. […] The interaction between Bcl-2 and free Atg12 is significant, considering that unconjugated Atg12 represents only a small fraction of cellular Atg12, whereas the majority of the protein is conjugated to Atg5, even under basal conditions when autophagy is not induced (FIG. 7A, right).
# Bcl-2 G145A = target: T2, Bcl-2 G145A (UniProt P10415 1-239); assay: co-immunoprecipitation, transiently transfected HEK293 cells
# T2 construct: Co-transfected with Flag-Atg12 in HEK293 cells; also called point mutation in the BH1 domain of Bcl-2
# T2 sequence (P10415 whole entry G145A, the tested form may be a part): as the sequence (P10415 whole entry, the tested form may be a part) above, with G145A counted along it
# Procedure: as §1
# Therefore experiments were performed to test whether Atg12 was able to interact with members of each subgroup, specifically Bcl-2 and Mcl-1. In transiently transfected HEK293 cells, wild-type Bcl-2 co-immunoprecipitated with Flag-Atg12 (FIG. 5B). […] The specificity of the interaction was further confirmed by reciprocal co-immunoprecipitation, in which Flag-Bcl-2 pulled down ectopically expressed Atg12 (FIG. 6B). In addition, Mcl-1 also co-immunoprecipitated with Flag-Atg12 upon co-expression (FIG. 5B), and Flag-Atg12 interacted with endogenous Bcl-2 and Mcl-1 (FIG. 5C). Thus, Atg12 is able to bind promiscuously to both subgroups of Bcl-2-related proteins.
# Chain of Atg12-Mcl-1 interaction (Q07820 whole entry): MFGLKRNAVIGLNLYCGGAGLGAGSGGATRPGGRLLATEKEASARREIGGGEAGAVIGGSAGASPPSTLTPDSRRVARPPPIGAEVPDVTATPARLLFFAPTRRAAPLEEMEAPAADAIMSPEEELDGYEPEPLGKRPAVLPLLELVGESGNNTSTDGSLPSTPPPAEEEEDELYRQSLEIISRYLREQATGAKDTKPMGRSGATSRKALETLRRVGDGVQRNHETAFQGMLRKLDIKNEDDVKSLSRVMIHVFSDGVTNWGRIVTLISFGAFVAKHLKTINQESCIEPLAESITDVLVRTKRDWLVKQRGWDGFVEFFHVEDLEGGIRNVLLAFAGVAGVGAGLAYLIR
molecule,measurement,setting,value
CN(C)CC[C@H](CSc1ccccc1)Nc1ccc(S(=O)(=O)NC(=O)c2ccc(N3CCN(Cc4ccccc4-c4ccc(Cl)cc4)CC3)cc2)cc1[N+](=O)[O-] [ABT-737],binding of Atg12 to Mcl-1,Atg12-Mcl-1 interaction,not affected
same,interaction between Flag-Atg12 and endogenous Bcl-2,Atg12-Bcl-2 interaction [1],disrupted
recombinant p38 purified from bacteria,in-vitro kinase assay (33P-ATP); phospho-mapping by mass spectrometry,[2],p38 phosphorylates Atg12 in an in-vitro kinase assay; the site of phosphorylation was Thr65 in Atg12
"CN[C@@H]1C[C@H]2O[C@@](C)([C@@H]1OC)n1c3ccccc3c3c4c(c5c6ccccc6n2c5c31)C(=O)NC4 [STS, staurosporine]",binding of Flag-Atg12 to endogenous Bcl-2,Atg12-Bcl-2 interaction [3],increased
same,Bax activation,Bax,activation of Bax
"Atg12 (human; untagged, endogenous, or tag not stated) (other, also called hAtg12; endogenous Atg12) MAEEPQSVLQLPTSIAAGGEGLTDVSPETTTPEPPSSAAVSPGTEEPAGDTKKKIDILLKAVGDTPIMKTKKWAVERTRTIQGLIDFIKKFLKLVASEQLFIYVNQSFAPSPDQEVGTLYECFGSDGKLVLHYCKSQAWG",binding result,Flag-tagged Bcl-2,binds
"Flag-tagged human Atg12 (wild type) (other, Expressed from pcDNA3 in HEK293 or HeLa cells and pulled down on anti-FLAG M2 beads; Also used here for the recombinant Atg12 made in E. coli and purified on FLAG-agarose (kinase assay); also called Flag-Atg12; Flag-tagged hAtg12; not shown: Flag tag) MAEEPQSVLQLPTSIAAGGEGLTDVSPETTTPEPPSSAAVSPGTEEPAGDTKKKIDILLKAVGDTPIMKTKKWAVERTRTIQGLIDFIKKFLKLVASEQLFIYVNQSFAPSPDQEVGTLYECFGSDGKLVLHYCKSQAWG",binding result,Bcl-2 G145A,no binding
